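Compound exposure: 48 hours, 5 concentrations, 96-well plates. TGI: total growth inhibition.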
Experiments:
Test in all cases: inhibition of tumour cell growth, NCI panel, 48 h
NCI-H23 lung = test system: NCI-H23 lung
A549 NSCLC = test system: A549 NSCLC
SNB-75 CNS = test system: SNB-75 CNS
EKVX NSCLC = test system: EKVX NSCLC
IGROV1 ovarian = test system: IGROV1 ovarian
NCI-H460 lung = test system: NCI-H460 lung
K-562 leukemia = test system: K-562 leukemia
SK-MEL-5 melanoma = test system: SK-MEL-5 melanoma
UACC-257 melanoma = test system: UACC-257 melanoma
SK-OV-3 ovarian = test system: SK-OV-3 ovarian
KM12 colon = test system: KM12 colon
HT29 colon = test system: HT29 colon
786-0 renal = test system: 786-0 renal
BT-549 breast = test system: BT-549 breast
NCI-H226 lung = test system: NCI-H226 lung
HOP-92 NSCLC = test system: HOP-92 NSCLC

Compound | TGI (NCI-H23 lung) [µM] | TGI (A549 NSCLC) [µM] | TGI (SNB-75 CNS) [µM] | TGI (EKVX NSCLC) [µM] | TGI (IGROV1 ovarian) [µM] | TGI (NCI-H460 lung) [µM] | TGI (K-562 leukemia) [µM] | TGI (SK-MEL-5 melanoma) [µM] | TGI (UACC-257 melanoma) [µM] | TGI (SK-OV-3 ovarian) [µM] | TGI (KM12 colon) [µM] | TGI (HT29 colon) [µM] | TGI (786-0 renal) [µM] | TGI (BT-549 breast) [µM] | TGI (NCI-H226 lung) [µM] | TGI (HOP-92 NSCLC) [µM]
COC(=O)[C@]12CC3C=CC1N(C3)C(CBr)c1c2n(S(=O)(=O)c2ccccc2)c2ccccc12 (some centres undefined) | > 100 | > 100 | 86.2 | > 100 | > 100 | > 100 | 0.314 | > 100 | > 100 | > 100 | > 100 | > 100 | > 100 | > 100 | > 100 | –
Cc1ccc(CC2(C(=O)O)Cc3ccc(C)cc3C2)cc1 (centres undefined) | > 100 | > 100 | > 100 | > 100 | > 100 | > 100 | > 100 | > 100 | > 100 | > 100 | > 100 | > 100 | > 100 | > 100 | > 100 | –
Cc1cc(S(=O)(=O)NC2=NCc3nc4ccccc4n32)c(S)cc1Cl | – | 83.2 | 60.4 | 86 | 69.7 | 82.4 | > 100 | 32.1 | 62.2 | – | 38 | – | 47.8 | 71.9 | 40.9 | 47.2
O=c1nc2n3c4c(cccc4nc-2c(=O)[nH]1)CCC3 | > 100 | > 100 | > 100 | > 100 | > 100 | > 100 | > 100 | > 100 | > 100 | > 100 | > 100 | > 100 | > 100 | > 100 | > 100 | –
CN1C(=O)C2(C)SC1(c1ccccc1)C1C(=O)N(c3ccccc3)C(=O)C12 (centres undefined) | > 100 | > 100 | – | > 100 | > 100 | – | > 100 | > 100 | 93.3 | > 100 | > 100 | > 100 | > 100 | > 100 | > 100 | > 100
CC(/C=C/C(=O)NO)=C\C(C)C(=O)c1ccc(N(C)C)cc1 (centres undefined) | 4 | 0.0814 | 0.234 | 41 | 0.28 | 0.0658 | – | 0.187 | 0.387 | 0.224 | 0.932 | > 100 | 6.42 | > 60.4 | 12.9 | 0.388
Oc1c(Br)cc(/C=C/c2ccnc(/C=C/c3cc(Br)c(O)c(Br)c3)c2)cc1Br | – | 77 | 58.5 | 56.4 | > 100 | > 100 | 60.1 | 41 | 66.7 | > 100 | 38.7 | 40.2 | 35.3 | > 100 | – | > 100
Cc1ccc2c(=O)cc(-c3sccc3C)[nH]c2n1 | – | – | > 100 | > 100 | > 96 | > 79.8 | > 100 | 3.88 | – | > 100 | > 59.5 | 8.72 | > 67.8 | > 100 | 6.55 | > 100
CCOC1OC(COC(=O)C(C)(C)C)C(O)CC1n1cc(C)c(=O)[nH]c1=O (centres undefined) | > 100 | > 100 | > 100 | > 100 | > 100 | > 100 | > 100 | > 100 | > 100 | – | > 100 | > 100 | > 100 | > 100 | > 100 | > 100
CCOC(=O)C(C(=O)OCC)=C1SC(=Nc2ccccc2)C(=Nc2ccccc2)N1c1ccccc1 | > 100 | > 100 | > 100 | > 100 | > 100 | > 100 | > 100 | > 100 | – | > 100 | > 100 | > 100 | > 100 | > 100 | > 100 | > 100
NC(=O)C1CCCN1C(=O)C(Cc1cnc[nH]1)NC(=O)C1CCCC1 (centres undefined) | > 100 | > 100 | > 100 | > 100 | > 100 | > 100 | > 100 | > 100 | – | > 100 | > 100 | > 100 | > 100 | > 100 | > 100 | > 100
O=c1ccc2ccc(OP(=O)(O)O)cc2o1 | > 100 | > 100 | > 100 | > 100 | > 100 | > 100 | > 100 | > 100 | > 100 | > 100 | > 100 | > 100 | > 100 | > 100 | > 100 | –
C=CCOC(=O)CC[C@H](NC(=O)[C@@H](CCC(F)(F)F)Cc1ccc(O)cc1)C(=O)OCC=C | > 100 | > 100 | 77.2 | 73.4 | > 100 | – | > 100 | 35 | – | > 100 | > 100 | > 100 | > 100 | > 100 | > 100 | > 100
COc1ccc(C2SC(N)=Nc3c2c(C)nn3C(=O)c2ccccc2O)cc1OC (centres undefined) | > 10 | > 10 | 9.32 | > 10 | > 10 | > 10 | > 10 | – | > 10 | > 10 | > 10 | > 10 | > 10 | > 10 | > 10 | 4.36
O=c1c2cc(-c3ccccc3)cnc2sn1-c1ccc(Br)cc1 | > 100 | > 100 | > 100 | > 100 | > 100 | > 100 | > 100 | – | > 100 | > 100 | > 100 | > 100 | > 100 | > 100 | > 100 | > 100
CC1=C(C#N)C(=C(C#N)C#N)OC1(C)Cc1ccccc1 (centres undefined) | > 100 | > 100 | > 100 | > 100 | > 100 | – | > 100 | > 100 | > 100 | > 100 | > 100 | 78.6 | > 100 | > 100 | 59.3 | 38.6
O=C(Nc1ccccc1)c1cc(S(=O)(=O)Nc2n[nH]c(=O)n2-c2ccccc2)c(S)cc1Cl | – | > 100 | > 100 | > 100 | > 100 | > 100 | > 100 | > 100 | > 100 | > 100 | > 100 | > 100 | > 100 | > 100 | > 100 | > 100
N#C/C(=C\c1ccc(F)cc1)c1nc(-c2cc3ccccc3oc2=O)cs1 | – | > 100 | 95.9 | > 100 | 85 | > 100 | > 100 | 41.6 | 65.9 | 67.5 | > 100 | > 100 | 37.1 | 24.8 | > 100 | 29.5
CC(=O)NC1C(OC(C)C(=O)NC(C)C(=O)NC(CCC(=O)NCCCCCNc2ccc([N+](=O)[O-])c3[nH]c4ccccc4c(=O)c23)C(N)=O)C(O)C(CO)OC1(C)OCc1ccccc1 (centres undefined) | > 100 | > 100 | > 100 | > 100 | > 100 | > 100 | > 100 | > 100 | > 100 | > 100 | > 100 | > 100 | > 100 | > 100 | > 100 | –
OC1(C(Sc2cc(C(F)(F)F)cc(C(F)(F)F)c2)Sc2cc(C(F)(F)F)cc(C(F)(F)F)c2)C=CCCC1 (centres undefined) | 8.66 | 6.1 | 10.8 | 6.78 | 8.56 | 3.55 | 5.42 | 16.6 | 3.56 | 11.3 | 5.83 | 7.24 | 8.09 | 9.89 | – | 9.15
N#CC12C(=O)N3C(=NC(c4ccco4)NC3c3ccco3)C1(C#N)C(c1ccco1)NC1=C2CCCC1 (centres undefined) | > 100 | > 100 | – | > 100 | > 100 | > 100 | > 100 | > 100 | > 100 | > 100 | > 100 | > 100 | > 100 | > 100 | > 100 | > 100
COc1cccc(/C=N/n2c(Cc3ccccc3)n[nH]c2=O)c1 | > 100 | > 100 | 61.2 | > 100 | – | > 100 | > 100 | > 100 | > 100 | > 100 | > 100 | > 100 | > 100 | > 100 | > 25.6 | –
CCOC(=O)c1nc2cc(C(F)(F)F)ccc2nc1Oc1ccc(C#N)cc1 | – | > 100 | > 100 | > 100 | > 100 | > 100 | > 100 | > 100 | > 100 | – | > 100 | – | > 100 | > 100 | > 100 | > 100
Cc1ccc2c(c1)C(=C(C#N)C#N)CCCS2(=O)=O | > 100 | > 100 | > 100 | > 100 | > 100 | > 100 | > 100 | – | > 100 | > 100 | > 100 | > 100 | > 100 | > 100 | > 100 | > 100
Cc1ccc(CC(Cc2ccccc2C)C(=O)O)c(C(=O)O)c1 (centres undefined) | > 100 | > 100 | > 100 | > 100 | > 100 | > 100 | > 100 | > 100 | > 100 | – | > 100 | > 100 | > 100 | > 100 | > 100 | > 100
CSC12c3cc(C)n(-c4ccc([N+](=O)[O-])cc4)c3CC(C)(C)CN1C(=O)C2Oc1ccccc1 (centres undefined) | > 100 | > 100 | > 100 | > 100 | > 100 | > 100 | > 100 | > 100 | > 100 | – | > 100 | – | > 100 | > 100 | > 100 | > 100
COc1ccc(C(CC2(c3ccc(OC)cc3)SCCCS2)NC(C)=O)cc1 (centres undefined) | > 100 | > 100 | > 100 | > 100 | > 100 | > 100 | > 100 | 37.7 | 70.2 | > 100 | > 100 | > 100 | > 100 | > 100 | – | > 100
COc1cc(OC)cc(OCc2nc3cc(C(F)(F)F)ccc3nc2-c2ccccc2)c1 | > 100 | > 100 | > 100 | > 100 | > 100 | > 100 | > 100 | – | > 100 | > 100 | > 100 | > 100 | > 100 | > 100 | > 100 | > 100
CCOC(=O)C1(C#N)OC(=O)c2cnccc21 (centres undefined) | > 100 | > 100 | > 100 | > 100 | > 100 | > 100 | > 100 | – | > 100 | > 100 | > 100 | > 100 | > 100 | > 100 | > 100 | > 100
CCOC(=O)c1cc(C2CCN(c3ccccc3)C2=O)c(/C(O)=C/C(C)=O)[nH]1 (centres undefined) | > 100 | > 100 | > 100 | > 100 | > 100 | > 100 | > 100 | > 100 | > 100 | > 100 | > 100 | > 100 | > 100 | > 100 | > 100 | –

Reference: PubChem BioAssay (NCI)
